Data taken from US9981975B2, “Pyrrolotriazine compounds as tam inhibitors” (Incyte Corporation, priority 2016, dated 2018).

How the values were obtained:
Tyro3 = Tyro3 (Homo sapiens (Human), UniProt Q06418); assay: TAM Enzymatic Assay (HTRF), Tyro3; type: biochemical; settings: Tyro3, 60 min, room temperature
Protocol: (§1) The kinase assay buffer contained 50 mM HEPES, pH7.5, 10 mM MgCl2, 1 mM EGTA, 0.01% NP-40 and 2 mM DTT. 0.1 ul test compounds dissolved in DMSO were transferred from compound plates to white 384-well assay plates (Greiner […] plates). […] 4 ul enzyme solution (or assay buffer for the enzyme blank) was added to the appropriate wells in each plate, and then 4 ul/well substrate solution was added to initiate the reaction. The plate was protected from light and incubated at room temperature for 60 min. […] The plate was incubated for 1 h at room temperature, and HTRF (homogenous time resolved fluorescence) signal was measured on a PHERAstar FS plate reader (BMG labtech). Percentage of inhibition was calculated for each concentration and IC50 value was generated from curve fitting with GraphPad Prism software.

phosphor-Axl = phosphor-Axl (Homo sapiens (Human), UniProt P30530); assay: TAM Enzymatic Assay (HTRF), Axl; type: biochemical; settings: recombinant autophosphorylated Axl, 60 min, room temperature
Protocol: Autophosphorylation of Axl was carried out by incubating the recombinant Axl protein (Life Technologies, PV4275) in buffer containing 50 mM Tris, pH7.5, 0.2 mg/ml Axl, 5 mM ATP, 20 mM MgCl2 and 2 mM DTT at room temperature for 1 hour.
as §1

Tyro3, sequence (Q06418 41-890): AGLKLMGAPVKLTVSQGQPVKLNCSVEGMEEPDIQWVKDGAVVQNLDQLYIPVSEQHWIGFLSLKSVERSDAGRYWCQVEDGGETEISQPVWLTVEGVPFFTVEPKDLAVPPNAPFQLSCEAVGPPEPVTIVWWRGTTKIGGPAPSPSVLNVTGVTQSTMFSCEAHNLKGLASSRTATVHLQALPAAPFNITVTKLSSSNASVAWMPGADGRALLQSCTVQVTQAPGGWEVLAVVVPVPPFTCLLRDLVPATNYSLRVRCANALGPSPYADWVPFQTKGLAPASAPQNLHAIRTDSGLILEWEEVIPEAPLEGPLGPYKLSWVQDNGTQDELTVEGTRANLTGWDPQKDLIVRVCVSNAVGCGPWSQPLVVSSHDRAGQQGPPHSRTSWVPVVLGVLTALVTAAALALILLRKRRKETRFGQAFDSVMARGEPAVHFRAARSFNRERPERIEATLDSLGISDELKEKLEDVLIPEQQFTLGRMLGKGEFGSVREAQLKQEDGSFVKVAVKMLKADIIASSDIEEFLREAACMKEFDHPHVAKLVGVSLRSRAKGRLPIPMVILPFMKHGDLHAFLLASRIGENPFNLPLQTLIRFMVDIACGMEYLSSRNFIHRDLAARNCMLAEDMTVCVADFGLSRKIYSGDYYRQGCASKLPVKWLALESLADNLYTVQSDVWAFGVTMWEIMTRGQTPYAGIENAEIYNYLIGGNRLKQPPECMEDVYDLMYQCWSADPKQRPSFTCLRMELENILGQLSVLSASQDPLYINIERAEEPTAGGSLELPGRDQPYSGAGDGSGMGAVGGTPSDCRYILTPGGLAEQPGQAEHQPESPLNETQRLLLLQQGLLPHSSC
phosphor-Axl, sequence (P30530 26-894): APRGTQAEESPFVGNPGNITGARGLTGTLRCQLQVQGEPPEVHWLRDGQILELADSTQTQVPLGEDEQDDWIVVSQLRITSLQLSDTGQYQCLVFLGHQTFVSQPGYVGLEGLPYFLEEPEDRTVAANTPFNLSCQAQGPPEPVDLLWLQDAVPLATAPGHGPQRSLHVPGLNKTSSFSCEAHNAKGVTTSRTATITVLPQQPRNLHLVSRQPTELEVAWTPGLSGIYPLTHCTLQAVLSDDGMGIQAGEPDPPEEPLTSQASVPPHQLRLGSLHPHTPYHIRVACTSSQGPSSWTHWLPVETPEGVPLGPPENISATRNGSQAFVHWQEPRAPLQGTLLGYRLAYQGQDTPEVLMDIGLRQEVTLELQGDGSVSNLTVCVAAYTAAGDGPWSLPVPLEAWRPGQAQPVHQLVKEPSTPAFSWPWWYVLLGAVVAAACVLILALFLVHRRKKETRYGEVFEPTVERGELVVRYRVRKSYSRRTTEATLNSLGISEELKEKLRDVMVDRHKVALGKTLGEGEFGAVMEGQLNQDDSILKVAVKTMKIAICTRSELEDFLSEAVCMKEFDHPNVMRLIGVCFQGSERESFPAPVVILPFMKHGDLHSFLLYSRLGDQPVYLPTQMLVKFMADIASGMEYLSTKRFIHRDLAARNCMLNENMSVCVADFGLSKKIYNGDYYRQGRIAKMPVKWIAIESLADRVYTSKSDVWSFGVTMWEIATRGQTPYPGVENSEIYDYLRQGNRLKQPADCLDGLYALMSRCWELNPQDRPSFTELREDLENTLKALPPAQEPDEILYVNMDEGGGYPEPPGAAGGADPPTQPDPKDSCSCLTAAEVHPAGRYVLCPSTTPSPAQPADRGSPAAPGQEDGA

IC50 (Tyro3)	IC50 (phosphor-Axl)	Structure (SMILES)
10 to 100 nM		CC(C)n1cc(C(=O)Nc2ccc(-c3cc(C4CCN(C5CCN(C)C5=O)CC4)n4ncnc(N)c34)cc2)c(=O)n(-c2ccccc2)c1=O (racemic) [Example 82, N-(4-(4-Amino-7-(1-(1-methyl-2-oxopyrrolidin-3-yl)piperidin-4-yl)pyrrolo[1,2-f][1,2,4]triazin-5-yl)phenyl)-1-isopropyl-2,4-dioxo-3-phenyl-1,2,3,4-tetrahydropyrimidine-5-carboxamide]
> 100 nM		CCc1cc(-c2ccc(NC(=O)c3cc4c(n(-c5ccc(F)cc5)c3=O)CCCC4=O)cc2)c2c(N)ncnn12 [Example 1, N-[4-(4-Amino-7-ethylpyrrolo[2,1-f][1,2,4]triazin-5-yl)phenyl]-1-(4-fluorophenyl)-2,5-dioxo-1,2,5,6,7,8-hexahydroquinoline-3-carboxamide]
> 100 nM		CCc1cc(-c2ccc(NC(=O)c3cccn([C@@H](CO)c4ccccc4)c3=O)cc2)c2c(N)ncnn12 [Example 2, N-[4-(4-Amino-7-ethylpyrrolo[2,1-f][1,2,4]triazin-5-yl)phenyl]-1-[(1R)-2-hydroxy-1-phenylethyl]-2-oxo-1,2-dihydropyridine-3-carboxamide]
> 100 nM		Cc1cc(-c2ccc(NC(=O)c3cccn(-c4ccccc4)c3=O)cc2)c2c(N)ncnn12 [Example 8, N-[4-(4-Amino-7-methylpyrrolo[2,1-f][1,2,4]triazin-5-yl)phenyl]-2-oxo-1-phenyl-1,2-dihydropyridine-3-carboxamide]
> 100 nM		Cc1cc(-c2ccc(NC(=O)c3cccn(-c4ccccc4)c3=O)cc2F)c2c(N)ncnn12 [Example 10, N-[4-(4-Amino-7-methylpyrrolo[2,1-f][1,2,4]triazin-5-yl)-3-fluorophenyl]-2-oxo-1-phenyl-1,2-dihydropyridine-3-carboxamide]
> 100 nM		Cc1cc(-c2ccc(NC(=O)c3cccn(-c4ccc(F)cc4)c3=O)cc2F)c2c(N)ncnn12 [Example 11, N-[4-(4-Amino-7-methylpyrrolo[2,1-f][1,2,4]triazin-5-yl)-3-fluorophenyl]-1-(4-fluorophenyl)-2-oxo-1,2-dihydropyridine-3-carboxamide]
> 100 nM		Nc1ncnn2c(C3CCOCC3)cc(-c3ccc(NC(=O)c4cccn(-c5ccccc5)c4=O)cc3)c12 [Example 13, N-{4-[4-Amino-7-(tetrahydro-2H-pyran-4-yl)pyrrolo[2,1-f][1,2,4]triazin-5-yl]phenyl}-2-oxo-1-phenyl-1,2-dihydropyridine-3-carboxamide]
> 100 nM		CN1CCC(c2cc(-c3ccc(NC(=O)c4cccn(-c5ccccc5)c4=O)cc3)c3c(N)ncnn23)CC1 [Example 20, N-{4-[4-Amino-7-(1-methylpiperidin-4-yl)pyrrolo[2,1-f][1,2,4]triazin-5-yl]phenyl}-2-oxo-1-phenyl-1,2-dihydropyridine-3-carboxamide]
> 100 nM		COC(=O)N1CCC(c2cc(-c3ccc(NC(=O)c4cccn(-c5ccccc5)c4=O)cc3)c3c(N)ncnn23)CC1 [Example 36, Methyl 4-[4-amino-5-(4-{[(2-oxo-1-phenyl-1,2-dihydropyridin-3-yl)carbonyl]amino}phenyl)pyrrolo[2,1-f][1,2,4]triazin-7-yl]piperidine-1-carboxylate]
> 100 nM		CS(=O)(=O)N1CCC(c2cc(-c3ccc(NC(=O)c4cccn(-c5ccccc5)c4=O)cc3)c3c(N)ncnn23)CC1 [Example 40, N-(4-{4-Amino-7-[1-(methylsulfonyl)piperidin-4-yl]pyrrolo[2,1-f][1,2,4]triazin-5-yl}phenyl)-2-oxo-1-phenyl-1,2-dihydropyridine-3-carboxamide]
> 100 nM		CCN(C)C(=O)N1CCC(c2cc(-c3ccc(NC(=O)c4cccn(-c5ccc(F)cc5)c4=O)cc3)c3c(N)ncnn23)CC1 [Example 56, N-{4-[4-Amino-7-(1-{[ethyl(methyl)amino]carbonyl}piperidin-4-yl)pyrrolo[2,1-f][1,2,4]triazin-5-yl]phenyl}-1-(4-fluorophenyl)-2-oxo-1,2-dihydropyridine-3-carboxamide]
> 100 nM	≤ 5 nM	CCN(C)C(=O)N1CCC(c2cc(-c3ccc(NC(=O)c4cc5c(n(-c6ccc(F)cc6)c4=O)CCCC5=O)cc3)c3c(N)ncnn23)CC1 [Example 57, N-{4-[4-Amino-7-(1-{[ethyl(methyl)amino]carbonyl}piperidin-4-yl)pyrrolo[2,1-f][1,2,4]triazin-5-yl]phenyl}-1-(4-fluorophenyl)-2,5-dioxo-1,2,5,6,7,8-hexahydroquinoline-3-carboxamide]
> 100 nM	≤ 5 nM	CCN(C)C(=O)N1CCC(c2cc(-c3ccc(NC(=O)c4cc5c(n(-c6ccc(F)cc6)c4=O)CCCC5=O)cc3F)c3c(N)ncnn23)CC1 [Example 58, N-{4-[4-Amino-7-(1-{[ethyl(methyl)amino]carbonyl}piperidin-4-yl)pyrrolo[2,1-f][1,2,4]triazin-5-yl]-3-fluorophenyl}-1-(4-fluorophenyl)-2,5-dioxo-1,2,5,6,7,8-hexahydroquinoline-3-carboxamide]
	≤ 5 nM	Nc1ncnn2c(C3CCN(CCO)CC3)cc(-c3ccc(NC(=O)c4cc5c(n(-c6ccc(F)cc6)c4=O)CCCC5=O)cc3F)c12 [Example 60, N-(4-{4-Amino-7-[1-(2-hydroxyethyl)piperidin-4-yl]pyrrolo[2,1-f][1,2,4]triazin-5-yl}-3-fluorophenyl)-1-(4-fluorophenyl)-2,5-dioxo-1,2,5,6,7,8-hexahydroquinoline-3-carboxamide]
	≤ 5 nM	CCN(C)C(=O)N1CCC(c2cc(-c3ccc(NC(=O)c4cn(C(C)C)c(=O)n(-c5ccc(F)cc5)c4=O)cc3)c3c(N)ncnn23)CC1 [Example 66, N-(4-(4-Amino-7-(1-(ethyl(methyl)carbamoyl)piperidin-4-yl)pyrrolo[1,2-f][1,2,4]triazin-5-yl)phenyl)-3-(4-fluorophenyl)-1-isopropyl-2,4-dioxo-1,2,3,4-tetrahydropyrimidine-5-carboxamide]
	≤ 5 nM	CC(C)C(=O)N1CCC(c2cc(-c3ccc(NC(=O)c4cn(C(C)C)c(=O)n(-c5cccc(F)c5)c4=O)cc3)c3c(N)ncnn23)CC1 [Example 71, N-(4-(4-Amino-7-(1-isobutyrylpiperidin-4-yl)pyrrolo[1,2-f][1,2,4]triazin-5-yl)phenyl)-3-(3-fluorophenyl)-1-isopropyl-2,4-dioxo-1,2,3,4-tetrahydropyrimidine-5-carboxamide]
> 100 nM		Cc1nn(C)c(C)c1-c1cc(-c2ccc(NC(=O)c3cn(C(C)C)c(=O)n(-c4cccc(F)c4)c3=O)cc2)c2c(N)ncnn12 [Example 84, N-(4-(4-Amino-7-(1,3,5-trimethyl-1H-pyrazol-4-yl)pyrrolo[1,2-f][1,2,4]triazin-5-yl)phenyl)-3-(3-fluorophenyl)-1-isopropyl-2,4-dioxo-1,2,3,4-tetrahydropyrimidine-5-carboxamide]
> 100 nM		CC(C)n1cc(C(=O)Nc2ccc(-c3cc(C(=O)N(C)C)n4ncnc(N)c34)cc2)c(=O)n(-c2cccc(F)c2)c1=O [Example 86, 4-Amino-5-(4-(3-(3-fluorophenyl)-1-isopropyl-2,4-dioxo-1,2,3,4-tetrahydropyrimidine-5-carboxamido)phenyl)-N,N-dimethylpyrrolo[2,1-f][1,2,4]triazine-7-carboxamide]
> 100 nM		CC(C)C(=O)N1CCC(c2cc(-c3ccc(NC(=O)c4cn(C(C)C)c(=O)n(C5CCCCC5)c4=O)cc3)c3c(N)ncnn23)CC1 [Example 90, N-(4-(4-Amino-7-(1-isobutyrylpiperidin-4-yl)pyrrolo[2,1-f][1,2,4]triazin-5-yl)phenyl)-3-cyclohexyl-1-isopropyl-2,4-dioxo-1,2,3,4-tetrahydropyrimidine-5-carboxamide]
	≤ 5 nM	Cc1c(-c2ccnn2C)c(=O)c(C(=O)Nc2ccc(-c3cc(C4CCN(C(=O)C(C)C)CC4)n4ncnc(N)c34)cc2)cn1C(C)C [Example 97, N-(4-(4-Amino-7-(1-isobutyrylpiperidin-4-yl)pyrrolo[2,1-f][1,2,4]triazin-5-yl)phenyl)-1-isopropyl-6-methyl-5-(1-methyl-1H-pyrazol-5-yl)-4-oxo-1,4-dihydropyridine-3-carboxamide]
> 100 nM		COc1ccn(-c2ccccc2)c(=O)c1C(=O)Nc1ccc(-c2c(Br)c(C3CCN(C(=O)C(C)C)CC3)n3ncnc(N)c23)cc1 [Example 100, N-(4-(4-Amino-6-bromo-7-(1-isobutyrylpiperidin-4-yl)pyrrolo[1,2-f][1,2,4]triazin-5-yl)phenyl)-4-methoxy-2-oxo-1-phenyl-1,2-dihydropyridine-3-carboxamide]
> 100 nM		Cc1c(C(N)=O)cc(C(=O)Nc2ccc(-c3cc(C4CCN(C(=O)C(C)C)CC4)n4ncnc(N)c34)cc2)c(=O)n1-c1ccccc1 [Example 111a, N^3-(4-(4-Amino-7-(1-isobutyrylpiperidin-4-yl)pyrrolo[2,1-f][1,2,4]triazin-5-yl)phenyl)-6-methyl-2-oxo-1-phenyl-1,2-dihydropyridine-3,5-dicarboxamide]

Structure (SMILES)	IC50 (Tyro3)	IC50 (phosphor-Axl)
Cc1ccc(-c2ccc(C(=O)Nc3ccc(-c4cc(C5CCN(C(=O)C(C)C)CC5)n5ncnc(N)c45)cc3)c(=O)n2-c2ccccc2)cn1 [Example 105, N-(4-(4-Amino-7-(1-isobutyrylpiperidin-4-yl)pyrrolo[2,1-f][1,2,4]triazin-5-yl)phenyl)-6′-methyl-6-oxo-1-phenyl-1,6-dihydro-[2,3′-bipyridine]-5-carboxamide]		≤ 5 nM
